According to patent publication US20240400564A1 (Syndax Pharmaceuticals, Inc, priority 2021, published 2024):

Key:
[1] = tested on: MLLr leukemia cell line MV4-11; test: Cell proliferation assay MV4;11 (CellTiter-Glo, 72 hours); type: cell-based; conditions: Homo sapiens; MV4-11 cells, 72 hours, CellTiter-Glo; read-out: MV4; 11 IC50
Outline: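 Cells in IMDM/10% FBS, seeded from a 15,000 cells/ml suspension, were exposed for 72 h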

Menin-MLL = biological target: T1, Menin-MLL (Homo sapiens, UniProt O00255); test: Determination of binding constants to Menin-MLL (HTRF, EC50 and Ki); conditions: 0.25 nM H-FL-Menin, 3.2 nM FITC-MLL-4-43, 24 hr incubation
T1 sequence (O00255 1-610): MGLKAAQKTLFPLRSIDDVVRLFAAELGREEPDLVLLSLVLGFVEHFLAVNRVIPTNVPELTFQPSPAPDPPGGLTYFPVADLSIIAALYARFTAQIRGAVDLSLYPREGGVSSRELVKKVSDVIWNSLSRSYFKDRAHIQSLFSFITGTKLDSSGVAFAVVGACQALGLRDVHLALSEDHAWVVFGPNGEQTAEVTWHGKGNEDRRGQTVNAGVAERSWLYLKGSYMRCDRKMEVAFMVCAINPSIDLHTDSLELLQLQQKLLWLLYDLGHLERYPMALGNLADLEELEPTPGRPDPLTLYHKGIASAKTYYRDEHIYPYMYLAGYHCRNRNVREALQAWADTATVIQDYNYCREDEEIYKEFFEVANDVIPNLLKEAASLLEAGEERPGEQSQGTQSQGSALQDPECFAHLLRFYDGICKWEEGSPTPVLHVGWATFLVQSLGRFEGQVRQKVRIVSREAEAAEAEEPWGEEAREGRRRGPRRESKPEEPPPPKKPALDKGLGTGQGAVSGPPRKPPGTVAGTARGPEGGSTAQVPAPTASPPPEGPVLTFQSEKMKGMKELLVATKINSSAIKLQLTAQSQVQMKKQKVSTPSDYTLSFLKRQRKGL

hERG = hERG (Homo sapiens, UniProt Q12809); test: Patch clamp assay (hERG tail currents, whole-cell)
Method: The 35 mm culture dishes upon which cells were seeded at a density allowing single cells to be recorded were placed on the dish holder of the microscope and continuously perfused (at approximately 1 mL/min) with the bath solution described in section 4.6. All solutions applied to cells including the pipette solution were maintained at room temperature (19° C. to 30° C.). After formation of a Gigaohm seal between the patch electrodes and individual hERG stably transfected HEK 293 cells (pipette resistance range: 2.0 MS to 7.0 MS; seal resistance range: >1GΩ) the cell membrane across the pipette tip was ruptured to assure electrical access to the cell interior (whole-cell patch-configuration). In case the quality of the seal was poor, the process of seal formation was repeated with a different cell and a new pipette. As soon as a stable seal could be established, hERG outward tail currents were measured upon depolarization of the cell membrane to +20 mV for 2 s (activation of channels) from a holding potential of −80 mV and upon subsequent repolarization to −40 mV for 3 s. This voltage protocol (as shown below) was run at least 10 times at intervals of 10 s. If current density was judged to be too low for measurement, another cell was recorded.
During wash-in of the test item the voltage protocol indicated above was run continuously again at 10 s intervals until the steady-state level of block was reached.
The IC50 was determined by fitting the dose response curve with a 2-parameter logistic function (amax=100%).

[2] = biological target: T2, human Menin and N-terminal portion of human MLL (amino acids 4-43) (Homo sapiens, UniProt O00255); test: Menin-MLL competition assay (HTRF); type: binding; conditions: 1 hr incubation
T2 construct: H-FL-Menin diluted to 4 nM in assay buffer
T2 sequence (O00255 1-610): T1 sequence (O00255 1-610)
Outline: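 HTRF competition: 1 nM His-tagged full-length Menin with 2 nM Tb-anti-His6 and 1 nM FITC-MLL(4-43), 1 h at room temperature in Tris pH 7.4 buffer with DTT, BSA, Triton X-100; 3.16-fold compound series, 2% DMSO. Ratio 520/485 normalized to DMSO and 1 μM reference-compound controls for IC50.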

Chain of hERG (Q12809 whole entry, the tested form may be a part): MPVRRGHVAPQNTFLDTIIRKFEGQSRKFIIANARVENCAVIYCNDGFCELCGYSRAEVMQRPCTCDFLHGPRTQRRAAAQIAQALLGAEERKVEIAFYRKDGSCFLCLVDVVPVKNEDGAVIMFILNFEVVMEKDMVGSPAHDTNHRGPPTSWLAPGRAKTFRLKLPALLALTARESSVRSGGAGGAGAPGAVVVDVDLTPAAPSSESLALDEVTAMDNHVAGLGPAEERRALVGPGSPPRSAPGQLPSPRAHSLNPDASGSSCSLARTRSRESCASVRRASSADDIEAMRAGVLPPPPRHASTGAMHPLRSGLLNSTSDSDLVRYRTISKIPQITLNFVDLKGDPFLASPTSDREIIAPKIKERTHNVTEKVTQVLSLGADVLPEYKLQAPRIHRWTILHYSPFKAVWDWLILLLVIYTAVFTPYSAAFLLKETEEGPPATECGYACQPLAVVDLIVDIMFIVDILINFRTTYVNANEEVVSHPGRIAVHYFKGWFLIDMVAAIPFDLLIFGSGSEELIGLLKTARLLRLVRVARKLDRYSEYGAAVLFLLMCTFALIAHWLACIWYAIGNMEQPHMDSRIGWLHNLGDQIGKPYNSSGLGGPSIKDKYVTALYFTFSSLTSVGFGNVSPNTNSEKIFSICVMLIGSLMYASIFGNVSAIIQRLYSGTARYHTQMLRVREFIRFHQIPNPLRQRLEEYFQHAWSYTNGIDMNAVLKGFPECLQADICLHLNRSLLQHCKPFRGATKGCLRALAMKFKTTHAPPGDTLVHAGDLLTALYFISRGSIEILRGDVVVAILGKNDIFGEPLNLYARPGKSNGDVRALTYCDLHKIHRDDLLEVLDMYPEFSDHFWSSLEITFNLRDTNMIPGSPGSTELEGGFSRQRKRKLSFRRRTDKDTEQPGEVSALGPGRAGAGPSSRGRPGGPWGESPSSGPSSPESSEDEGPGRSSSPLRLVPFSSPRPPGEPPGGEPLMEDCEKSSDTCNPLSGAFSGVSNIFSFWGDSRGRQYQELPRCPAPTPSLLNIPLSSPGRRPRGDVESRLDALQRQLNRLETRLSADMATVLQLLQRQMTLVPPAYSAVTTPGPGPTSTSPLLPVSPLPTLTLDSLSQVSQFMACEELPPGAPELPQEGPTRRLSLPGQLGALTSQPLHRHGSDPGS

| SMILES | IC50 [1] [nM] | Ki (Menin-MLL) [nM] | hERG % Remaining (hERG; 10 μM compound) | hERG % Remaining (hERG; 30 μM compound) | Menin-MLL Ki HTRF Assay: EC50 (nM) (Menin-MLL) | IC50 [2] [nM] | IC50 (hERG) [nM] | hERG % Remaining (hERG; 100 μM compound) |
| --- | --- | --- | --- | --- | --- | --- | --- | --- |
| CC(C)N(C(=O)c1cc(F)ccc1Oc1cncnc1N1CC2(CCN(C[C@@H]3CC[C@@H](NS(=O)(=O)N(C)C)CO3)CC2)C1)[C@H]1CCOC1 [Example 177, 2-((4-(7-(((2S,5R)-5-((N,N-Dimethylsulfamoyl)amino)tetrahydro-2H-pyran-2-yl)methyl)-2,7-diazaspiro[3.5]nonan-2-yl)pyrimidin-5-yl)oxy)-5-fluoro-N-isopropyl-N-((S)-tetrahydrofuran-3-yl)benzamide] | < 100 | < 1 | +++ (≥66%) | +++ (≥66%) | – | – | – | – |
| CCN(C(=O)c1cc(F)ccc1Oc1cncnc1N1CC2(CCN(C[C@@H]3CC[C@@H](NC(=O)NCC(F)F)CO3)CC2)C1)C(C)C [Example 41, 2-((4-(7-(((2S,5R)-5-(3-(2,2-Difluoroethyl)ureido)tetrahydro-2H-pyran-2-yl)methyl)-2,7-diazaspiro[3.5]nonan-2-yl)pyrimidin-5-yl)oxy)-N-ethyl-5-fluoro-N-isopropylbenzamide] | – | – | – | – | ++ (250 nM and <100 nM) | < 100 | – | – |
| CCS(=O)(=O)N[C@@H]1CC[C@@H](CN2CCC3(CC2)CN(c2ncncc2Oc2ccc(F)cc2C(=O)N(C(C)C)[C@H]2C[C@@H](F)C2)C3)OC1 [Example 244, 2-((4-(7-(((2S,5R)-5-(ethylsulfonamido)tetrahydro-2H-pyran-2-yl)methyl)-2,7-diazaspiro[3.5]nonan-2-yl)pyrimidin-5-yl)oxy)-5-fluoro-N-((1s,3s)-3-fluorocyclobutyl)-N-isopropylbenzamide] | < 100 | < 1 | +++ (≥66%) | ++ (233% and ≤66%) | – | – | – | – |
| CCCNC(=O)N[C@@H]1CC[C@@H](CN2CCC3(CC2)CN(c2ncncc2Oc2ccc(F)cc2C(=O)N(CC)C(C)C)C3)OC1 [Example 38, N-Ethyl-5-fluoro-N-isopropyl-2-((4-(7-(((2S,5R)-5-(3-propylureido)tetrahydro-2H-pyran-2-yl)methyl)-2,7-diazaspiro[3.5]nonan-2-yl)pyrimidin-5-yl)oxy)benzamide] | – | – | – | – | ++ (250 nM and <100 nM) | < 100 | – | – |
| CC(C)N(C(=O)c1cc(F)ccc1Oc1cncnc1N1CC2(CCN(C[C@@H]3CC[C@@H](NS(=O)(=O)C4CC4)CO3)CC2)C1)[C@H]1CCOC1 [Example 176, 2-((4-(7-(((2S,5R)-5-(Cyclopropanesulfonamido)tetrahydro-2H-pyran-2-yl)methyl)-2,7-diazaspiro[3.5]nonan-2-yl)pyrimidin-5-yl)oxy)-5-fluoro-N-isopropyl-N-((S)-tetrahydrofuran-3-yl)benzamide] | < 100 | < 1 | +++ (≥66%) | +++ (≥66%) | – | – | > 50000 | +++ (≥66%) |
